Laboratory results reported in US8143374B2, “Polypeptide derivatives of parathyroid hormone (PTH)” (The General Hospital Corporation, priority 2006, dated 2012).
Where no end group is shown, it is not given here.

What was measured:
[1] = target: T1, endogenous PTHR in ROS 17/2.8 cells (Rattus norvegicus, UniProt P25961); assay: Competition binding in intact ROS 17/2.8 cells with 125I-PTH(1-34) tracer; conditions: 125I-[Nle8,21,Tyr34]rPTH(1-34)NH2 tracer
T1 construct: ROS 17/2.8 cells are rat osteosarcoma cells and express the endogenous PTHR; endogenous in cells; host or cells: ROS 17/2.8 rat osteosarcoma cells
T1 sequence (P25961 27-591): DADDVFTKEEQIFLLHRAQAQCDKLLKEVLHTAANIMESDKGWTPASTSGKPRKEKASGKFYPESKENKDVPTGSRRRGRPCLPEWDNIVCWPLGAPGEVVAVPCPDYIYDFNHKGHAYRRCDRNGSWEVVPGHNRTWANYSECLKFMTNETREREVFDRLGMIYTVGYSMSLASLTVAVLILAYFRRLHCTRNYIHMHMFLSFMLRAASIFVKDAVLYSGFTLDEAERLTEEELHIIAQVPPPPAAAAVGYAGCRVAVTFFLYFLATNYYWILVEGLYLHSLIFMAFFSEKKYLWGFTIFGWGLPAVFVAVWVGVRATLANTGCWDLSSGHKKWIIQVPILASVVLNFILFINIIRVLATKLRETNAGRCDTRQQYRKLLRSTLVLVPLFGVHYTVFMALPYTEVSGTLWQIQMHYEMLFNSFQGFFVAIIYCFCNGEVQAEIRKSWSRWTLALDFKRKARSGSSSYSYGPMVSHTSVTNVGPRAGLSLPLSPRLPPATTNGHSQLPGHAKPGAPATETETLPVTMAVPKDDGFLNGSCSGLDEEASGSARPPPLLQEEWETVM
Experimental: Cell Culture—Cells were cultured at 37° C. in a humidified atmosphere containing 5% CO2 in Dulbecco's modified Eagle's medium (DMEM), supplemented with 10% fetal bovine serum (HyClone, Logan Utah), 100 units/ml penicillin G, and 100 ug/ml streptomycin penicillin G/streptomycin (Invitrogen Corp. Carlsbad, Calif.). For binding and cAMP studies performed with the intact PTHR, the HKRK-B7 and ROS 17/2.8 cell lines were used. HKRK-B7 cells are derived from the porcine kidney cell line LLC-PK1 and express, via stable DNA transfection, the wild-type human PTHR at an approximate surface density of 950,000 PTH-binding sites per cell. […]
Receptor binding—Binding to the wild-type human PTHR in intact HKRK-B7 cells and ROS 17/2.8 cells was assessed using ^125I-PTH(1-34) as a tracer radioligand, as described (Shimizu, M., (2001) Endocrinology 142:3068-3074). […] The binding mixture was then removed by aspiration, the cells were rinsed three times with binding buffer, lysed in 1 M NaOH, and the entire lysate was counted for gamma-irradiation in a gamma counter. Binding to PTHR-delNt in COS-7 cell membranes was assessed in 96-well, vacuum filtration plates (Multiscreen-Durapore HV, […] membranes, Millipore Corp., Millford, Mass.) using ^125I-[Aib^1,3,M]PTH(1-15)NH2 as a tracer radioligand, as described (Dean, T., (2006) Mol Endocrinol 20:931-942). […]

[2] = target: T2, ROS 17/2.8 cells (Rattus norvegicus, UniProt P25961); conditions: position-20 substitutions in PTH(1-31)NH2; cited from earlier work
T2 construct: ROS 17/2.8 cells are rat osteosarcoma cells and express the endogenous PTHR; host or cells: ROS 17/2.8 cells
T2 sequence (P25961 27-591): T1 sequence (P25961 27-591)

IC50 [1] [µM] | Substance | reduction of cAMP-stimulating potency [2]
5.8 | SVSEIQLMHNLGKHLNSMEEVEWLRKKLQDV [Arg^20→Glu] | –
– | SVSEIQLMHNLGKHLNSMEKVEWLRKKLQDV-NH2 [Arg^20→Lys] | abolished activity altogether
